Test system: 817829-284-R-J1-PDC complex spheroids, viability
Test: Anticancer human tumor 817829-284-R-J1-PDC patient-derived colon adenocarcinoma cell line growth inhibition [GQUAD]
Settings: for IC50: curve of first compound; for viability, T/C: stronger effect = lower value
In short: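 Multi-cell-type spheroids of tumor cells with HUVEC and mesenchymal stem cells, treated with drug combinations. Concentrations descend in half-log steps from near clinical Cmax, or from 10 microM where Cmax is unknown; viability read-out.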

[1] = second compound 0.0316 µM, first compound 0.0316 µM
[2] = second compound 0.0316 µM, first compound 0.1 µM
[3] = second compound 0.0316 µM, first compound 0.316 µM
[4] = second compound 0.0316 µM, first compound 1 µM
[5] = second compound 0.0316 µM, first compound 3.16 µM
[6] = second compound 0.0316 µM, first compound 10 µM
[7] = second compound 0.1 µM, first compound 0.0316 µM
[8] = second compound 0.1 µM, first compound 0.1 µM
[9] = second compound 0.1 µM, first compound 0.316 µM
[10] = second compound 0.1 µM, first compound 1 µM
[11] = second compound 0.1 µM, first compound 3.16 µM
[12] = second compound 0.1 µM, first compound 10 µM
[13] = second compound 0.316 µM, first compound 0.0316 µM
[14] = second compound 0.316 µM, first compound 0.1 µM
[15] = second compound 0.316 µM, first compound 0.316 µM
[16] = second compound 0.316 µM, first compound 1 µM
[17] = second compound 0.316 µM, first compound 3.16 µM
[18] = second compound 0.316 µM, first compound 10 µM
[19] = second compound 1 µM, first compound 0.0316 µM
[20] = second compound 1 µM, first compound 0.1 µM
[21] = second compound 1 µM, first compound 0.316 µM
[22] = second compound 1 µM, first compound 1 µM
[23] = second compound 1 µM, first compound 3.16 µM
[24] = second compound 1 µM, first compound 10 µM
[25] = second compound 3.16 µM, first compound 0.0316 µM
[26] = second compound 3.16 µM, first compound 0.1 µM
[27] = second compound 3.16 µM, first compound 0.316 µM
[28] = second compound 3.16 µM, first compound 1 µM
[29] = second compound 3.16 µM, first compound 3.16 µM
[30] = second compound 3.16 µM, first compound 10 µM
[31] = second compound 10 µM, first compound 0.0316 µM
[32] = second compound 10 µM, first compound 0.1 µM
[33] = second compound 10 µM, first compound 0.316 µM
[34] = second compound 10 µM, first compound 1 µM
[35] = second compound 10 µM, first compound 3.16 µM
[36] = second compound 10 µM, first compound 10 µM
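Note: spheroids exposed to agents for 7 days before readout.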
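Throughout, for viability, T/C: percent viability relative to DMSO vehicle control taken as 100%.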

CC(=O)O[C@H]1C(=O)[C@@]2(C)[C@H]([C@H](OC(=O)c3ccccc3)[C@]3(O)C[C@H](OC(=O)[C@H](O)[C@@H](NC(=O)c4ccccc4)c4ccccc4)C(C)=C1C3(C)C)[C@]1(OC(C)=O)CO[C@@H]1C[C@@H]2O + Cc1cnc(CNC(=O)c2c(=O)c3ccc(N4CCCN(C)CC4)nc3n3c2sc2ccccc23)cn1
IC50 (second compound 0.0316 µM): < 0.0316 µM
IC50 (second compound 0.1 µM): < 0.0316 µM
IC50 (second compound 0.316 µM): < 0.0316 µM
IC50 (second compound 1 µM): < 0.0316 µM
IC50 (second compound 3.16 µM): < 0.0316 µM
IC50 (second compound 10 µM): < 0.0316 µM
viability, T/C [1]: 13.8%
viability, T/C [2]: 7.95%
viability, T/C [3]: 6.83%
viability, T/C [4]: 5.58%
viability, T/C [5]: 6.63%
viability, T/C [6]: 7.13%
viability, T/C [7]: 16.6%
viability, T/C [8]: 15.9%
viability, T/C [9]: 13.2%
viability, T/C [10]: 13.6%
viability, T/C [11]: 14.1%
viability, T/C [12]: 14.8%
viability, T/C [13]: 17.9%
viability, T/C [14]: 20.6%
viability, T/C [15]: 19.2%
viability, T/C [16]: 19.6%
viability, T/C [17]: 16%
viability, T/C [18]: 20.2%
viability, T/C [19]: 15.3%
viability, T/C [20]: 20.4%
viability, T/C [21]: 17.4%
viability, T/C [22]: 17%
viability, T/C [23]: 17.5%
viability, T/C [24]: 16.5%
viability, T/C [25]: 17.3%
viability, T/C [26]: 16.9%
viability, T/C [27]: 14.7%
viability, T/C [28]: 14.4%
viability, T/C [29]: 12.7%
viability, T/C [30]: 13.1%
viability, T/C [31]: 0.11%
viability, T/C [32]: 0.16%
viability, T/C [33]: 0.15%
viability, T/C [34]: 0.14%
viability, T/C [35]: 0.15%
viability, T/C [36]: 0.15%

COc1ncnc(C2CC2)c1-c1ncc2cnn(Cc3ccc(-c4nc(C(F)(F)F)cn4C(C)C)cc3)c2n1 + Cc1[nH]c2ccc(F)cc2c1-c1nc2c3cccnc3c3ncccc3c2[nH]1
IC50 (second compound 0.0316 µM): > 10 µM
IC50 (second compound 0.1 µM): > 10 µM
IC50 (second compound 0.316 µM): > 10 µM
IC50 (second compound 1 µM): > 10 µM
IC50 (second compound 3.16 µM): > 10 µM
IC50 (second compound 10 µM): 0.032 µM
viability, T/C [1]: 99.1%
viability, T/C [2]: 113%
viability, T/C [3]: 101%
viability, T/C [4]: 97.9%
viability, T/C [5]: 113%
viability, T/C [6]: 109%
viability, T/C [7]: 96.6%
viability, T/C [8]: 115%
viability, T/C [9]: 99.8%
viability, T/C [10]: 111%
viability, T/C [11]: 108%
viability, T/C [12]: 115%
viability, T/C [13]: 105%
viability, T/C [14]: 119%
viability, T/C [15]: 101%
viability, T/C [16]: 94.2%
viability, T/C [17]: 110%
viability, T/C [18]: 129%
viability, T/C [19]: 118%
viability, T/C [20]: 105%
viability, T/C [21]: 117%
viability, T/C [22]: 98.9%
viability, T/C [23]: 108%
viability, T/C [24]: 118%
viability, T/C [25]: 63.5%
viability, T/C [26]: 73.5%
viability, T/C [27]: 56.4%
viability, T/C [28]: 79.9%
viability, T/C [29]: 84.8%
viability, T/C [30]: 68.7%
viability, T/C [31]: 50.2%
viability, T/C [32]: 26.4%
viability, T/C [33]: 27.8%
viability, T/C [34]: 40.9%
viability, T/C [35]: 15.1%
viability, T/C [36]: 18.8%

O=c1[nH]cc(F)c(=O)[nH]1 + Cc1cnc(CNC(=O)c2c(=O)c3ccc(N4CCCN(C)CC4)nc3n3c2sc2ccccc23)cn1
IC50 (second compound 0.0316 µM): 0.799 µM
IC50 (second compound 0.1 µM): < 0.0316 µM
IC50 (second compound 0.316 µM): < 0.0316 µM
IC50 (second compound 1 µM): < 0.0316 µM
IC50 (second compound 3.16 µM): < 0.0316 µM
IC50 (second compound 10 µM): < 0.0316 µM
viability, T/C [1]: 91.4%
viability, T/C [2]: 75.3%
viability, T/C [3]: 77.6%
viability, T/C [4]: 43%
viability, T/C [5]: 37.6%
viability, T/C [6]: 33%
viability, T/C [7]: 29.9%
viability, T/C [8]: 41.6%
viability, T/C [9]: 34.2%
viability, T/C [10]: 35.5%
viability, T/C [11]: 29.1%
viability, T/C [12]: 25.7%
viability, T/C [13]: 25.3%
viability, T/C [14]: 27.6%
viability, T/C [15]: 32.9%
viability, T/C [16]: 26.8%
viability, T/C [17]: 26.7%
viability, T/C [18]: 23.3%
viability, T/C [19]: 22.8%
viability, T/C [20]: 22.4%
viability, T/C [21]: 23.5%
viability, T/C [22]: 24.8%
viability, T/C [23]: 22.9%
viability, T/C [24]: 21.4%
viability, T/C [25]: 21.8%
viability, T/C [26]: 21.2%
viability, T/C [27]: 19.6%
viability, T/C [28]: 19.5%
viability, T/C [29]: 20.1%
viability, T/C [30]: 18%
viability, T/C [31]: 0.08%
viability, T/C [32]: 0.13%
viability, T/C [33]: 0.17%
viability, T/C [34]: 0.14%
viability, T/C [35]: 0.19%
viability, T/C [36]: 0.16%
